US8008346B2, “Chemotherapeutic agents for inhibition of protein translation” (The Royal University for the Advancement of Learning/McGill …, priority 2006, dated 2011)
Numbered stars: 1 amine (or outer) side, 2 acyl side, 3 side chain; on linkers, the order of the positions; unused ones are H or OH. Bridge positions count the residues as written; N and C are the ends. Square brackets hold non-standard residues; d marks the D form. Peptide text beside a SMILES is read from it. I, II: the chains in the order shown. Actinocin(9to1) = Cc1c2oc3c(C)ccc(C(=O)[*:1])c3nc-2c(C(=O)[*:2])c(N)c1=O; NMeV = CN[C@H](C(=O)O)C(C)C; Sar = CNCC(=O)O

Key:
human tumor stem cell = settings: in vitro; cited from earlier work
HeLa cells [1] = experiment: 3H-uridine incorporation (RNA synthesis) in HeLa cells; format: cell-based; settings: 50 μM, 60 min, normalized to DMSO, positive control, data not shown
Description: (§1) FIG. 4. Effect of hippuristanol on protein, RNA and DNA synthesis in cells. A. Relative rate of ^35S-methionine incorporation as a function of hippuristanol concentration in HeLa cells. Cells were exposed to the indicated concentration of compound for 50 min., followed by a 10 min. labeling period with ^35S-methionine in the presence of compound. The rate of protein synthesis (TCA precipitable cpm) obtained in the presence of compound was normalized to the rate obtained in the presence of DMSO (which was set at 1). The rate of protein synthesis in the control reactions (containing DMSO vehicle) averaged ˜700,000 cpm/10 min. labeling period. Results are shown for two experiments and the error of the mean is presented. The relative rate of ^35S-methionine incorporation in HeLa cells exposed to 10 μM anisomycin (positive control) for 60 min. was ˜0.02 (data not shown). B. Effect of hippuristanol on protein (gray circles), DNA (open squares), and RNA (solid squares) synthesis in HeLa cells. […] Gradients were analyzed by piercing the tube with a Brandel tube piercer, passing 60% sucrose through the bottom of the tube, and monitoring the absorbance of the material eluting from the tube using an ISCO UA-6 UV Detector.

murine leukemia cells = settings: also in a number of human tumor xenografts; cited from earlier work
4E-BP = experiment: Western blot of 4E-BP and S6K phosphorylation status in MEFs stimulated with insulin (± rapamycin); format: cell-based, murine
Description: (§2) FIG. 14. (A) Western blot analysis of 4E-BP and S6K phosphorylation status in MEFs (murine embryo fibroblasts) stimulated with insulin (±rapamycin). Antibodies to pan-4E-BP and eIF4E antibodies were used. The phosphorylation status of 4E-BP is evident by a shift to a slower mobility species (shift from α to γ species). […] (B) Clofoctol inhibits protein synthesis in cells. MEF cells were incubated for 45 minutes in the presence of increasing amounts of clofoctol in methionine-free culture media. S^35-methionine was then added to the cell culture and incubation continued for 15 minutes. The amount of S^35-methionine incorporated into newly synthesized proteins was detected by TCA precipitation of the cell lysate following by scintillation counting. Results are expressed relative to the incorporation in the presence of 0.5% DMSO.

MEF cells = experiment: S35-methionine incorporation (protein synthesis) in MEF cells; format: cell-based, murine; settings: 45 min + 15 min labeling, relative to 0.5% DMSO
Description: as §2

[2] = tested on: Lymphomas derived from Eμ-myc, Eμ-myc×Tsc2(−/+), or Bcl2/Eμ-myc mice; experiment: Growth/cytotoxicity in lymphoma cell lines in culture; format: cell-based
Excerpt: FIG. 15. Clofoctol Inhibits growth of tumor cell lines in culture. Lymphomas derived from Eμ-myc, Eμ-myc×Tsc2(−/+), or Bcl2/Eμ-myc mice were exposed to the indicated concentrations of Clofoctol and cytotoxicity monitored.

[3] = tested on: Akt-driven Eμ-myc lymphomas; experiment: Akt-driven Eμ-myc lymphoma model, combination with doxorubicin; format: in vivo, Mice; settings: hippurin-1 5 mg/kg every day for 5 days, doxorubicin 10 mg/kg once on day 2 of 5
Description: FIG. 13. Efficacy of hippurin-1 on Akt-driven Eμ-myc lymphomas when administered in combination with doxorubicin. Mice bearing Akt-driven Eμ-myc lymphomas where injected with either doxorubicin (10 mg/kg once on day 2 of 5), hippurin-1 alone (5 mg/kg every day for 5 days) or hippurin-1 and doxorubicin (hippurin-1: 5 mg/kg every day for 5 days, doxorubicin: 10 mg/kg once on day 2 of 5). Tumor size was monitored by (A) palpation (blinded study) and (B) blood smears on days 1, 3 and 5 during the treatment to assess the size of the lymphomas and the number of leukemic cells, respectively.

HeLa cells [4] = experiment: 35S-methionine incorporation (protein synthesis) in HeLa cells; format: cell-based; settings: HeLa cells, 10 μM, 60 min; normalized to DMSO (set at 1); positive control, data not shown
Description: FIG. 4. Effect of hippuristanol on protein, RNA and DNA synthesis in cells. A. Relative rate of ^35S-methionine incorporation as a function of hippuristanol concentration in HeLa cells. Cells were exposed to the indicated concentration of compound for 50 min., followed by a 10 min. labeling period with ^35S-methionine in the presence of compound. The rate of protein synthesis (TCA precipitable cpm) obtained in the presence of compound was normalized to the rate obtained in the presence of DMSO (which was set at 1). The rate of protein synthesis in the control reactions (containing DMSO vehicle) averaged ˜700,000 cpm/10 min. labeling period. Results are shown for two experiments and the error of the mean is presented. The relative rate of ^35S-methionine incorporation in HeLa cells exposed to 10 μM anisomycin (positive control) for 60 min. was ˜0.02 (data not shown). B. Effect of hippuristanol on protein (gray circles), DNA (open squares), and RNA (solid squares) synthesis in HeLa cells. The rate of macromolecular synthesis (TCA precipitable cpm for a 10 min. labeling period) obtained in the presence of 1 μM hippuristanol was normalized to the rate obtained in the presence of DMSO and is plotted. The results are shown for two experiments and the error of the mean is presented. The rate of protein, RNA and DNA synthesis in the control reactions (containing DMSO vehicle) averaged ˜900,000 cpm/10 min, ˜16,000 cpm/10 min. and 7,000 cpm/10 min labeling, respectively. The relative rate of ^35S-methionine incorporation by HeLa cells exposed to 10 μM anisomycin for 60 min. (positive control for inhibition of protein synthesis) was 0.02 (data not shown). The relative rate of ^3H-uridine incorporation by HeLa cells exposed to 50 μM actinomycin (positive control for inhibition of RNA synthesis) for 60 min. was 0.01 (data not shown). C. […] Gradients were analyzed by piercing the tube with a Brandel tube piercer, passing 60% sucrose through the bottom of the tube, and monitoring the absorbance of the material eluting from the tube using an ISCO UA-6 UV Detector.

HeLa cell polyribosomes = experiment: HeLa cell polyribosome profile on sucrose gradients; format: cell-based; settings: 10 uM, 20 min
Description: as §1

In the case of CC[C@H](C)[C@H]1NC(=O)[C@@H](NC(=O)[C@@H](CC(C)C)N(C)C(=O)[C@@H]2CCCN2C(=O)C(C)O)[C@@H](C)OC(=O)[C@H](Cc2ccc(OC)cc2)N(C)C(=O)[C@@H]2CCCN2C(=O)[C@H](CC(C)C)NC(=O)[C@@H](C)C(=O)[C@H](C(C)C)OC(=O)C[C@@H]1O (stereo partly shown) [Didemnin B], the “concentrations inhibiting cell growth” value (human tumor stem cell) is given as 1 to 100 nM.

With Cc1c2oc3c(C)ccc(C(=O)N[C@@H]4C(=O)N[C@H](C(C)C)C(=O)N5CCC[C@H]5C(=O)N(C)CC(=O)N(C)[C@@H](C(C)C)C(=O)O[C@@H]4C)c3nc-2c(C(=O)N[C@@H]2C(=O)N[C@H](C(C)C)C(=O)N3CCC[C@H]3C(=O)N(C)CC(=O)N(C)[C@@H](C(C)C)C(=O)O[C@@H]2C)c(N)c1=O [actinomycin] (I: T[dV]P[Sar][NMeV] / II: T[dV]P[Sar][NMeV]; ester I:1-I:C, II:1-II:C; linker I:N-II:N via Actinocin(9to1)) the “relative rate of 3H-uridine incorporation” value (HeLa cells [1]) was 0.01.

For dehydrodidemnin 6, the “activity relative to didemnin B” value (murine leukemia cells) is given as “ten times more active”.

In the case of CC(C)(C)CC(C)(C)c1ccc(O)c(Cc2ccc(Cl)cc2Cl)c1 [Clofoctol], the “phosphorylation status of 4E-BP” value (4E-BP; MEF cells, in the presence or absence of rapamycin) was “causes dephosphorylation of 4E-BP”, the “S6 phosphorylation in the presence of rapamycin” value (4E-BP; MEFs, FIG. 14A lane 4 vs 3) was “antagonizes rapamycin's block of S6 phosphorylation” and the “protein synthesis in cells” value (MEF cells) was “inhibits”. The “growth of tumor cell lines in culture” value [2] was “Inhibits”.

With CC(=O)O[C@@H]1C[C@@]2(C)[C@@H](CC[C@@H]3[C@@H]2[C@@H](O)C[C@@]2(C)[C@H]3C[C@@H]3O[C@@]4(C[C@H](C)C(C)(C)O4)[C@](C)(O)[C@@H]32)C[C@@H]1O [hippurin-1] the “adjuvant effect to doxorubicin in a mouse lymphoma model” value [3] was “can act as adjuvant”.

For COc1ccc(C[C@H]2NC[C@H](O)[C@H]2OC(C)=O)cc1 [anisomycin, reference compound], the “relative rate of 35S-methionine incorporation” value (HeLa cells [4]) was about 0.02 and the “effect on HeLa cell polyribosomes” value (HeLa cell polyribosomes) was “blocked elongation and caused an accumulation of ribosomes in polysomes”.
